# In US12263187B2, “Treatment of bone marrow pathologies with polysulfated polysaccharides” (PARADIGM BIOPHARMACEUTICALS LTD, priority 2017, dated 2025):
# Entries after “also recorded” stand apart in the source; their conditions may differ.
# Experiments:
# Modic Changes = assay: Further work: Modic Changes assessed by MRI after SC PPS twice-weekly for 6 weeks; type: in vivo; settings: 2 mg/kg PPS or fixed dose of 150 mg, slow SC injection twice-weekly for 6 weeks
# [1] = system: patient with chronic lower back pain with a Modic Type 1 pattern on MRI; assay: Example 3: case report for chronic low back pain with Modic Type 1 pattern; type: in vivo, human; settings: patient one
# Experimental: Patient one, a person with chronic lower back pain with a Modic Type 1 pattern on MRI scan of the L3/L4 and L4 L5 region of the spine presented in the clinics with unresolved persistent pain despite current standard of care treatment with Mobic, an NSAID.
# The baseline NRS pain score prior to treatment with PPS was a high score of 7. Patient was administered by subcutaneous injection a dose of 150 mg fixed dose of PPS twice weekly for 4 weeks (ie a total of 8 injections). […] During the course of the treatment the patient had abstained from any other therapeutic intervention.
# [2] = system: Knee OA patients with Bone Marrow Edema Lesions; assay: Example 1: PPS in knee OA patients with Bone Marrow Edema Lesions on MRI (TGA Special Access Scheme); type: in vivo, human; settings: standard four week course of PPS
# [3] = fraction of the activity of heparin; cited from earlier work
# [4] = system: Knee OA patients with Bone Marrow Edema Lesions; assay: Example 1: PPS in knee OA patients with Bone Marrow Edema Lesions on MRI (TGA Special Access Scheme); type: in vivo, human; design: key to After PPS/BMEL: Severe: (>20 mm); Moderate: (5 mm to 20 mm); Minimal: (<5 mm); Absent; settings: for After PPS/BMEL / After PPS/NRS Pain / After PPS/Lysholm Knee Score: 2 mg/kg IM 2x weekly for 3 weeks; for After PPS/NRS Pain / After PPS/Lysholm Knee Score: scored 2 to 4 weeks after last injection; for After PPS/NRS Pain: scale 0-10; for After PPS/Lysholm Knee Score: scale 0-100
# Source text: Example 1 is a study of the safety, tolerability and results of patients treated with PPS with Bone Marrow Edema Lesions of the knee and suffering from osteoarthritis under the TGA Special Access Scheme (B). (Approval to use PPS as treatment for the patient was acquired from Department of Health-Therapeutic Goods Administration, Australian Government under the Special Access Scheme (SAS) since the injectable form of PPS was not a registered product in Australia.)
# Patients in the study had the following characteristics: • High pain scores • Poor joint function scores • MRI evidence of Bone Marrow Edema Lesions and joint effusions • Kellgren-Lawrence (3-4) OA subjects currently on waiting list for Total Knee Replacement • Failed standard of care including intraarticular injections of corticosteroids • The protocol featured the following: • Treatment: 2× weekly intramuscular injections of 2 mg/kg for 3 weeks (total of 6 injections) • All patients abstained from NSAIDs during PPS treatment • The treatment outcomes of pain and function were scored before and after PPS treatment 2 to 4 weeks after the last PPS injection • All patients had baseline subchondral BML.
# Numerical Rating Scale (NRS) is an 11-point scale (0-10). A state of no pain is 0 and the worst pain imaginable is 10.
# Lysholm Knee Score is a total score of 0-100 is calculated based on the results from the eight functional components of the Lysholm knee score scale: Limp (5 points), Support (5 points), Locking (15 points), Instability (25 points), Pain (25 points), Swelling (10 points), Stair climbing (10 points), and Squatting (5 points). The total score is assigned to rating categories as follows: 95-100 indicates excellent, 84-94 indicates good, 65-83 indicates fair and <65 indicates poor function.
# BMEL = assay: Further work: BMEL assessed by MRI after SC PPS twice-weekly for 6 weeks; type: in vivo; settings: 2 mg/kg PPS or fixed dose of 150 mg, slow SC injection twice-weekly for 6 weeks
# [5] = system: person with knee osteoarthritis and subchondral bone marrow edema lesions; assay: Example 2: case report of knee osteoarthritis with subchondral BML; type: in vivo, human
# Experimental: The patient was administered a course of Pentosan Polysulphate Sodium (PPS) intramuscularly twice weekly for 3 weeks. […] These MRI interpretations corroborate improved clinical outcome measures ensuing therapeutic intervention with PPS.
# A person with a history of arthroscopic partial medial meniscectomy presented with pain of the left knee and was on a waiting list for total knee replacement. […] The BML in the medial femoral condyle measured 11×7×12 mm (CC×transverse×AP) and the medial tibial plateau BML measured 8×8×8 mm (CC×transverse×AP). […] Following patient consent, the pain assessment score was determined by the Numerical Rating Scale (NRS) and functional capacity assessments included the Lysholm knee score. At pre-treatment, the NRS pain score was severe with a score of 8 out of 10 (range 0-10) and the Lysholm Knee score was 37 out of 100 reflecting poor knee function indicated by problems in stair climbing and limping.
# Since PPS is a weak anticoagulant with 1/15 the activity of heparin, the patient was monitored for safety by assessments of complete blood count, APTT, prothrombin time, liver function tests, renal function tests and serum calcium prior to commencement of treatment and periodically during treatment with Pentosan Polysulphate Sodium. The clinical status of the patient was checked regularly throughout the course of the treatment and follow up period.
# After evaluation, the patient was considered suitable for treatment with Pentosan Polysulphate Sodium (PPS) under the SAS. The patient was administered 2 mg/kg of PPS twice weekly with a minimum of three and a maximum of four days between dosages. Six intramuscular injections were administered into the gluteus maximus muscle over a three-week period (2 injections per week). Three follow-up appointments were made at 10, 24 and 38 days post-completion of injection regimen.
substance,measurement,setting,value
Pentosan Polysulphate Sodium [PPS],Modic Changes as assessed by magnetic resonance imaging,Modic Changes,consistent resolution
same,pain soon after the 4th injection,[1]; 150 mg fixed dose SC twice weekly,improvement in pain
same,adverse events,"[1]; 150 mg fixed dose SC twice weekly for 4 weeks, during and after treatment",No adverse events
same,BMEL on MRI,[2],clearly visible BMEL reduction
same,pain and mobility scores,[2],improved
same,anticoagulant activity relative to heparin,[3],1/15
same,After PPS/BMEL,"[4]; patient four, before PPS: Moderate (5 mm to 20 mm)",Minimal ((<5 mm))
same,After PPS/NRS Pain,"[4]; patient four, before PPS: 4",1
same,After PPS/Lysholm Knee Score,"[4]; patient four, before PPS: 73",90
same,After PPS/BMEL,"[4]; patient three, before PPS: Severe (>20 mm)",Moderate ((5 mm to 20 mm))
same,After PPS/NRS Pain,"[4]; patient three, before PPS: 4",0
same,After PPS/Lysholm Knee Score,"[4]; patient three, before PPS: 54",73
same,After PPS/BMEL,"[4]; patient two, before PPS: Moderate (5 mm to 20 mm)",Absent
same,After PPS/NRS Pain,"[4]; patient two, before PPS: 8",0
same,After PPS/Lysholm Knee Score,"[4]; patient two, before PPS: 37",70
same,adverse events,"[4]; patients with BMEL and osteoarthritis under TGA SAS(B), 2 mg/kg IM 2x weekly",no adverse events were reported
same,BMEL volume as assessed by magnetic resonance imaging,BMEL,consistent BMEL volume reduction
same,bone marrow oedema lesions at the medial femoral condyle and medial tibial plateau on MRI,"[5]; 2 mg/kg IM twice weekly for 3 weeks (6 injections), MRI five weeks after first injection, pre-treatment BML 11x7x12 mm and 8x8x8 mm",resolution of medial compartment bone oedema; also recorded: complete resolution; also recorded: complete reduction
same,knee (joint) effusion on MRI,"[5]; 2 mg/kg IM twice weekly for 3 weeks, axial imaging at level of suprapatellar pouch, five weeks after first injection",reduction in size of knee effusion; also recorded: complete resolution; also recorded: marked reduction; also recorded: reduction in the size
same,adverse events,"[5]; 2 mg/kg IM twice weekly for 3 weeks, during treatment and follow up period",did not present with any drug-related or nondrug-related adverse response; also recorded: did not report any adverse effects; also recorded: no post-treatment adverse events
same,improvement of the Lysholm Knee score,"[5]; 2 mg/kg IM twice weekly for 3 weeks, four weeks after the last injection, 37 to 65",43%
same,Lysholm Knee score post-treatment,"[5]; 2 mg/kg IM twice weekly for 3 weeks, four weeks after the last injection, scale 0-100, pre-treatment score 37",65
same,NRS pain score post-treatment,"[5]; 2 mg/kg IM twice weekly for 3 weeks, scale 0-10, pre-treatment score 8",0
